# Assays:
# SF-295 [1] = assay: Growth inhibition of human SF-295 cells incubated for 48 hrs by sulforhodamine B spectrophotometric assay; type: functional
# DU-145 = assay: Growth inhibition of human DU-145 cells incubated for 48 hrs by sulforhodamine B spectrophotometric assay; type: functional
# HOP-92 = assay: Growth inhibition against human HOP-92 cells assessed as lethal concentration incubated for 48 hrs by sulforhodamine B spectrophotometric assay; type: functional; conditions: read-out: LC50 (the source's name)
# BT-549 = assay: Growth inhibition against human BT-549 cells assessed as total growth inhibitory concentration incubated for 48 hrs by sulforhodamine B spectrophotometric assay; type: functional
# [2] = Antileukemic activity against human CLL cell assessed as cell growth inhibition incubated for 72 hrs during remission period by MTT assay; type: functional, cell-based
# SF-539 = assay: Growth inhibition against human SF-539 cells assessed as lethal concentration incubated for 48 hrs by sulforhodamine B spectrophotometric assay; type: functional; conditions: read-out: LC50 (the source's name)
# PC-3 = assay: Growth inhibition against human PC-3 cells assessed as lethal concentration incubated for 48 hrs by sulforhodamine B spectrophotometric assay; type: functional; conditions: read-out: LC50 (the source's name)
# SK-MEL-5 [3] = assay: Growth inhibition against human SK-MEL-5 cells assessed as total growth inhibitory concentration incubated for 48 hrs by sulforhodamine B spectrophotometric assay; type: functional
# SK-OV-3 = assay: Growth inhibition against human SK-OV-3 cells assessed as lethal concentration incubated for 48 hrs by sulforhodamine B spectrophotometric assay; type: functional; conditions: read-out: LC50 (the source's name)
# HCT-15 [4] = assay: Growth inhibition of human HCT-15 cells incubated for 48 hrs by sulforhodamine B spectrophotometric assay; type: functional
# Malme-3M [5] = assay: Growth inhibition against human Malme-3M cells assessed as lethal concentration incubated for 48 hrs by sulforhodamine B spectrophotometric assay; type: functional; conditions: read-out: LC50 (the source's name)
# [6] = Antileukemic activity against human CLL cell assessed as cell growth inhibition incubated for 72 hrs in presence of BST by MTT assay; type: functional, cell-based
# [7] = Acute toxicity in C57BL/6 mouse assessed as decrease in body mass at 20 mg/kg,ip administration observed after 22 days; type: organism-based; conditions: in vivo, 528 h, time 22 day
# HL-60 [8] = assay: Growth inhibition against human HL-60 cells assessed as total growth inhibitory concentration incubated for 48 hrs by sulforhodamine B spectrophotometric assay; type: functional
# Hs-578T [9] = assay: Growth inhibition of human Hs-578T cells incubated for 48 hrs by sulforhodamine B spectrophotometric assay; type: functional
# IGROV-1 [10] = assay: Growth inhibition of human IGROV-1 cells incubated for 48 hrs by sulforhodamine B spectrophotometric assay; type: functional
# [11] = Acute toxicity in C57BL/6 mouse assessed as ratio of heart weight to body weight at 20 mg/kg,ip administration and observed after 22 days (reference value: 0.62 +/- 0.08); type: organism-based; conditions: in vivo, 528 h, time 22 day
# CCRF-CEM [12] = assay: Induction of cell cycle arrest in human CCRF-CEM cells assessed as DNA synthesis at 20.7 uM incubated for 2.5 hrs by BrdU incorporation based flow cytometry analysis (reference value: 42.4 +/- 0.66%); type: functional
# Malme-3M [13] = assay: Growth inhibition against human Malme-3M cells assessed as total growth inhibitory concentration incubated for 48 hrs by sulforhodamine B spectrophotometric assay; type: functional
# A498 = assay: Growth inhibition against human A498 cells assessed as lethal concentration incubated for 48 hrs by sulforhodamine B spectrophotometric assay; type: functional; conditions: read-out: LC50 (the source's name)
# OVCAR-8 = assay: Growth inhibition against human OVCAR-8 cells assessed as total growth inhibitory concentration incubated for 48 hrs by sulforhodamine B spectrophotometric assay; type: functional
# OVCAR-5 = assay: Growth inhibition of human OVCAR-5 cells incubated for 48 hrs by sulforhodamine B spectrophotometric assay; type: functional
# UACC-257 = assay: Growth inhibition against human UACC-257 cells assessed as lethal concentration incubated for 48 hrs by sulforhodamine B spectrophotometric assay; type: functional; conditions: read-out: LC50 (the source's name)
# NCI-H322M = assay: Growth inhibition against human NCI-H322M cells assessed as total growth inhibitory concentration incubated for 48 hrs by sulforhodamine B spectrophotometric assay; type: functional
# [14] = Acute toxicity in C57BL/6 mouse assessed as change in white blood cells at 20 mg/kg,ip administration observed after 22 days; type: organism-based; conditions: in vivo, 528 h, time 22 day
# HCT-15 [15] = assay: Growth inhibition against human HCT-15 cells assessed as total growth inhibitory concentration incubated for 48 hrs by sulforhodamine B spectrophotometric assay; type: functional
# CCRF-CEM [16] = assay: Induction of cell cycle arrest in human CCRF-CEM cells assessed as accumulation of cells at S phase at 20.7 uM incubated for 24 hrs by propidium iodide staining based flow cytometry analysis (reference value: 41.09 +/- 0.5%); type: functional
# COLO 205 = assay: Growth inhibition of human COLO 205 cells incubated for 48 hrs by sulforhodamine B spectrophotometric assay; type: functional
# U-251 = assay: Growth inhibition of human U-251 cells incubated for 48 hrs by sulforhodamine B spectrophotometric assay; type: functional
# 786-0 = assay: Growth inhibition of human 786-0 cells incubated for 48 hrs by sulforhodamine B spectrophotometric assay; type: functional
# [17] = Acute toxicity in C57BL/6 mouse assessed as survival rate at 20 mg/kg,ip administration observed after 22 days; type: organism-based; conditions: in vivo, time 22 day
# Hs-578T [18] = assay: Growth inhibition against human Hs-578T cells assessed as total growth inhibitory concentration incubated for 48 hrs by sulforhodamine B spectrophotometric assay; type: functional
# UO-31 = assay: Growth inhibition against human UO-31 cells assessed as lethal concentration incubated for 48 hrs by sulforhodamine B spectrophotometric assay; type: functional; conditions: read-out: LC50 (the source's name)
# MDA-MB-231 = assay: Induction of apoptosis in human MDA-MB-231 cells at 10 uM incubated for 24 hrs by Annexin-V-FITC/propidium iodide staining based flow cytometry analysis (reference value: 8.9%); type: functional
# SK-MEL-5 [19] = assay: Anticancer activity against human SK-MEL-5 cells assessed as cell growth at 10 uM incubated for 48 hrs by sulforhodamine B assay; type: functional; conditions: read-out: Activity
# IGROV-1 [20] = assay: Growth inhibition against human IGROV-1 cells assessed as total growth inhibitory concentration incubated for 48 hrs by sulforhodamine B spectrophotometric assay; type: functional
# KM12 = assay: Growth inhibition against human KM12 cells assessed as lethal concentration incubated for 48 hrs by sulforhodamine B spectrophotometric assay; type: functional; conditions: read-out: LC50 (the source's name)
# [21] = Acute toxicity in C57BL/6 mouse assessed as ratio of neutrophil to lymphocyte count at 20 mg/kg,ip administration and observed after 22 days; type: organism-based; conditions: in vivo, 528 h, time 22 day
# HL-60 [22] = assay: Growth inhibition against human HL-60 cells assessed as lethal concentration incubated for 48 hrs by sulforhodamine B spectrophotometric assay; type: functional; conditions: read-out: LC50 (the source's name)
# [23] = GSH reactivity of compound at pH 7.4 phosphate buffer assessed as GSH-adduct formation at 1 mM incubated for 1 hr in presence of sodium borohydride by spectrophotometric analysis; type: physicochemical; conditions: pH 7.4, 1 h, 1000 µM
# [24] = Acute toxicity in C57BL/6 mouse assessed as neutrophil count at 20 mg/kg,ip administration and observed after 22 days; type: organism-based; conditions: in vivo, 528 h, time 22 day
# [25] = Cytotoxicity against human Lymphocyte cells assessed as cell growth inhibition incubated for 72 hrs by MTT assay; type: toxicity, cell-based; conditions: lymphocytes
# CAKI-1 = assay: Growth inhibition against human CAKI-1 cells assessed as lethal concentration incubated for 48 hrs by sulforhodamine B spectrophotometric assay; type: functional; conditions: read-out: LC50 (the source's name)
# SF-295 [26] = assay: Growth inhibition against human SF-295 cells assessed as total growth inhibitory concentration incubated for 48 hrs by sulforhodamine B spectrophotometric assay; type: functional
smiles,measurement,setting,value
O=C1C2=C(C(=O)c3c(O)cccc31)C(c1ccco1)c1sc(=O)[nH]c1S2 (centres undefined),GI50,SF-295 [1],1.98 µM
same,GI50,DU-145,1.55 µM
same,CC50,HOP-92,32.5 µM
same,TGI,BT-549,3.19 µM
same,IC50,[2],28.2 µM
same,CC50,SF-539,7.05 µM
same,CC50,PC-3,> 100 µM
same,TGI,SK-MEL-5 [3],3 µM
same,CC50,SK-OV-3,56.5 µM
same,GI50,HCT-15 [4],1.75 µM
same,CC50,Malme-3M [5],4.75 µM
same,IC50,[6],8.24 µM
same,Activity,[7],Toxic
same,TGI,HL-60 [8],6.09 µM
same,GI50,Hs-578T [9],2.2 µM
same,GI50,IGROV-1 [10],2.51 µM
same,Ratio,[11],0.51
same,Activity,CCRF-CEM [12],0.9%
same,TGI,Malme-3M [13],2 µM
same,CC50,A498,31.6 µM
same,TGI,OVCAR-8,8.97 µM
same,GI50,OVCAR-5,2.13 µM
same,CC50,UACC-257,6.75 µM
same,TGI,NCI-H322M,3.13 µM
same,Activity,[14],Non-Toxic
same,TGI,HCT-15 [15],3.88 µM
same,Activity,CCRF-CEM [16],42.33%
same,GI50,COLO 205,1.89 µM
same,GI50,U-251,3.07 µM
same,GI50,786-0,7.09 µM
same,survival at 528 h,[17],100%
same,TGI,Hs-578T [18],6.56 µM
same,CC50,UO-31,36.7 µM
same,Activity,MDA-MB-231,28.2%
same,growth at 10 µM,SK-MEL-5 [19],-93.4%
same,TGI,IGROV-1 [20],6.14 µM
same,CC50,KM12,> 100 µM
same,Ratio,[21],0.465
same,CC50,HL-60 [22],> 100 µM
same,Activity,[23],Active
same,Activity,[24],31.21%
same,IC50 at 72 h,[25],> 50 µM
same,CC50,CAKI-1,37.3 µM
same,TGI,SF-295 [26],3.59 µM
